Laboratory results: PubChem BioAssay (NCI)
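In this assay, cells in 96-well plates receive the compound at five concentrations for 48 hours. Endpoints are linearly interpolated between the surrounding concentrations. TGI: total growth inhibition.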

Assays:
Assay in all cases: NCI-60 cell line screen, 48 h
SF-295 CNS = system: SF-295 CNS
NCI-H23 lung = system: NCI-H23 lung
HCC-2998 colon = system: HCC-2998 colon
NCI-H226 lung = system: NCI-H226 lung
OVCAR-4 ovarian = system: OVCAR-4 ovarian
CAKI-1 renal = system: CAKI-1 renal
BT-549 breast = system: BT-549 breast
MALME-3M melanoma = system: MALME-3M melanoma
ACHN renal = system: ACHN renal
U251 CNS = system: U251 CNS
HOP-92 NSCLC = system: HOP-92 NSCLC
HL-60(TB) leukemia = system: HL-60(TB) leukemia
SK-MEL-5 melanoma = system: SK-MEL-5 melanoma
HT29 colon = system: HT29 colon
786-0 renal = system: 786-0 renal
SK-MEL-28 melanoma = system: SK-MEL-28 melanoma
A498 renal = system: A498 renal
DU-145 prostate = system: DU-145 prostate
PC-3 prostate = system: PC-3 prostate
NCI/ADR-RES ovarian = system: NCI/ADR-RES ovarian
MDA-MB-231 breast = system: MDA-MB-231 breast
OVCAR-8 ovarian = system: OVCAR-8 ovarian
SNB-19 CNS = system: SNB-19 CNS
MCF7 breast = system: MCF7 breast
MOLT-4 leukemia = system: MOLT-4 leukemia
SNB-75 CNS = system: SNB-75 CNS
SK-OV-3 ovarian = system: SK-OV-3 ovarian
SN12C renal = system: SN12C renal
EKVX NSCLC = system: EKVX NSCLC
UACC-257 melanoma = system: UACC-257 melanoma
COLO 205 colon = system: COLO 205 colon
MDA-MB-435 = system: MDA-MB-435
HOP-62 NSCLC = system: HOP-62 NSCLC
OVCAR-5 ovarian = system: OVCAR-5 ovarian
MDA-N = system: MDA-N
SK-MEL-2 melanoma = system: SK-MEL-2 melanoma
M14 melanoma = system: M14 melanoma
SF-539 CNS = system: SF-539 CNS
TK-10 renal = system: TK-10 renal
KM12 colon = system: KM12 colon
UO-31 renal = system: UO-31 renal
SW-620 colon = system: SW-620 colon
HCT-116 colon = system: HCT-116 colon
OVCAR-3 ovarian = system: OVCAR-3 ovarian
UACC-62 melanoma = system: UACC-62 melanoma
NCI-H522 lung = system: NCI-H522 lung
SF-268 CNS = system: SF-268 CNS
T-47D breast = system: T-47D breast
LOX IMVI melanoma = system: LOX IMVI melanoma
IGROV1 ovarian = system: IGROV1 ovarian
HS 578T breast = system: HS 578T breast
HCT-15 colon = system: HCT-15 colon
A549 NSCLC = system: A549 NSCLC
RPMI-8226 leukemia = system: RPMI-8226 leukemia
RXF 393 renal = system: RXF 393 renal
CCRF-CEM leukemia = system: CCRF-CEM leukemia
NCI-H460 lung = system: NCI-H460 lung
K-562 leukemia = system: K-562 leukemia

COC(=O)c1c(C)ccc2c(O)c3c(cc12)C(=O)c1c2c(cc(O)c1C3=O)C1(C)OC(C)(O2)C(O)C(N(C)C)C1O (stereo unspecified)
TGI (SF-295 CNS): 25.1 µM
TGI (NCI-H23 lung): 3.03 µM
TGI (HCC-2998 colon): 1.39 µM
TGI (NCI-H226 lung): 11.5 µM
TGI (OVCAR-4 ovarian): 8.81 µM
TGI (CAKI-1 renal): 6.32 µM
TGI (BT-549 breast): 10.7 µM
TGI (MALME-3M melanoma): 6.42 µM
TGI (ACHN renal): 4.67 µM
TGI (U251 CNS): 1.6 µM
TGI (HOP-92 NSCLC): > 100 µM
TGI (HL-60(TB) leukemia): 15.4 µM
TGI (SK-MEL-5 melanoma): 17.3 µM
TGI (HT29 colon): 2.01 µM
TGI (786-0 renal): 1.95 µM
TGI (SK-MEL-28 melanoma): 11.8 µM
TGI (A498 renal): 7.46 µM
TGI (DU-145 prostate): 2.46 µM
TGI (PC-3 prostate): 4.89 µM
TGI (NCI/ADR-RES ovarian): > 100 µM
TGI (MDA-MB-231 breast): 3.21 µM
TGI (OVCAR-8 ovarian): 2.27 µM
TGI (SNB-19 CNS): 7.22 µM
TGI (MCF7 breast): 8.04 µM
TGI (MOLT-4 leukemia): 3.2 µM
TGI (SNB-75 CNS): 12.7 µM
TGI (SK-OV-3 ovarian): > 100 µM
TGI (SN12C renal): 12.1 µM
TGI (EKVX NSCLC): 8.75 µM
TGI (UACC-257 melanoma): 3.09 µM
TGI (COLO 205 colon): 7.56 µM
TGI (MDA-MB-435): 2.97 µM
TGI (HOP-62 NSCLC): 13.4 µM
TGI (OVCAR-5 ovarian): 7.19 µM
TGI (MDA-N): 2.58 µM
TGI (SK-MEL-2 melanoma): 5.65 µM
TGI (M14 melanoma): 10.4 µM
TGI (SF-539 CNS): 12.8 µM
TGI (TK-10 renal): 2.68 µM
TGI (KM12 colon): 2.97 µM
TGI (UO-31 renal): 9.27 µM
TGI (SW-620 colon): > 100 µM
TGI (HCT-116 colon): 1.84 µM
TGI (OVCAR-3 ovarian): 9.59 µM
TGI (UACC-62 melanoma): 8.64 µM
TGI (NCI-H522 lung): 2.33 µM
TGI (SF-268 CNS): 2.7 µM

N#Cc1ccccc1NC(=O)/C(=N\NC(=O)c1ccncc1)C(c1cnc2ccc([N+](=O)[O-])cc2n1)[N+](=O)[O-] (stereo unspecified)
TGI (SF-295 CNS): > 100 µM
TGI (NCI-H23 lung): > 100 µM
TGI (HCC-2998 colon): > 100 µM
TGI (T-47D breast): > 100 µM
TGI (LOX IMVI melanoma): > 100 µM
TGI (IGROV1 ovarian): > 100 µM
TGI (NCI-H226 lung): > 100 µM
TGI (OVCAR-4 ovarian): > 100 µM
TGI (CAKI-1 renal): > 100 µM
TGI (BT-549 breast): > 100 µM
TGI (MALME-3M melanoma): > 100 µM
TGI (ACHN renal): > 100 µM
TGI (HS 578T breast): > 100 µM
TGI (HCT-15 colon): > 100 µM
TGI (U251 CNS): > 100 µM
TGI (HOP-92 NSCLC): > 100 µM
TGI (HL-60(TB) leukemia): > 100 µM
TGI (SK-MEL-5 melanoma): > 100 µM
TGI (HT29 colon): > 100 µM
TGI (786-0 renal): > 100 µM
TGI (SK-MEL-28 melanoma): > 100 µM
TGI (A498 renal): > 100 µM
TGI (A549 NSCLC): > 100 µM
TGI (PC-3 prostate): > 100 µM
TGI (NCI/ADR-RES ovarian): > 100 µM
TGI (MDA-MB-231 breast): > 100 µM
TGI (OVCAR-8 ovarian): > 100 µM
TGI (MCF7 breast): > 100 µM
TGI (MOLT-4 leukemia): > 100 µM
TGI (SNB-75 CNS): > 100 µM
TGI (SK-OV-3 ovarian): > 100 µM
TGI (SN12C renal): > 100 µM
TGI (EKVX NSCLC): > 100 µM
TGI (UACC-257 melanoma): > 100 µM
TGI (MDA-MB-435): > 100 µM
TGI (HOP-62 NSCLC): > 100 µM
TGI (OVCAR-5 ovarian): > 100 µM
TGI (MDA-N): > 100 µM
TGI (SK-MEL-2 melanoma): > 100 µM
TGI (RPMI-8226 leukemia): > 100 µM
TGI (M14 melanoma): > 100 µM
TGI (SF-539 CNS): > 100 µM
TGI (TK-10 renal): > 100 µM
TGI (KM12 colon): > 100 µM
TGI (UO-31 renal): > 100 µM
TGI (SW-620 colon): > 100 µM
TGI (HCT-116 colon): > 100 µM
TGI (RXF 393 renal): > 100 µM
TGI (CCRF-CEM leukemia): > 100 µM
TGI (OVCAR-3 ovarian): > 100 µM
TGI (UACC-62 melanoma): > 100 µM
TGI (NCI-H522 lung): > 100 µM
TGI (NCI-H460 lung): > 100 µM
TGI (SF-268 CNS): > 100 µM

NC(Cc1ccccc1)=NCC(=O)O
TGI (SF-295 CNS): > 100 µM
TGI (NCI-H23 lung): > 100 µM
TGI (HCC-2998 colon): > 100 µM
TGI (T-47D breast): > 100 µM
TGI (LOX IMVI melanoma): > 100 µM
TGI (IGROV1 ovarian): > 100 µM
TGI (NCI-H226 lung): > 100 µM
TGI (OVCAR-4 ovarian): > 100 µM
TGI (CAKI-1 renal): > 100 µM
TGI (BT-549 breast): > 100 µM
TGI (MALME-3M melanoma): > 100 µM
TGI (ACHN renal): > 100 µM
TGI (HS 578T breast): > 100 µM
TGI (HCT-15 colon): > 100 µM
TGI (K-562 leukemia): > 100 µM
TGI (U251 CNS): > 100 µM
TGI (HOP-92 NSCLC): > 100 µM
TGI (HL-60(TB) leukemia): > 100 µM
TGI (SK-MEL-5 melanoma): > 100 µM
TGI (HT29 colon): > 100 µM
TGI (786-0 renal): > 100 µM
TGI (SK-MEL-28 melanoma): > 100 µM
TGI (A498 renal): > 100 µM
TGI (A549 NSCLC): > 100 µM
TGI (DU-145 prostate): > 100 µM
TGI (PC-3 prostate): > 100 µM
TGI (NCI/ADR-RES ovarian): > 100 µM
TGI (MDA-MB-231 breast): > 100 µM
TGI (OVCAR-8 ovarian): > 100 µM
TGI (SNB-19 CNS): > 100 µM
TGI (MCF7 breast): > 100 µM
TGI (MOLT-4 leukemia): > 100 µM
TGI (SNB-75 CNS): > 100 µM
TGI (SK-OV-3 ovarian): > 100 µM
TGI (SN12C renal): > 100 µM
TGI (EKVX NSCLC): > 100 µM
TGI (UACC-257 melanoma): > 100 µM
TGI (COLO 205 colon): > 100 µM
TGI (MDA-MB-435): > 100 µM
TGI (HOP-62 NSCLC): > 100 µM
TGI (OVCAR-5 ovarian): > 100 µM
TGI (MDA-N): > 100 µM
TGI (SK-MEL-2 melanoma): > 100 µM
TGI (RPMI-8226 leukemia): > 100 µM
TGI (M14 melanoma): > 100 µM
TGI (TK-10 renal): > 100 µM
TGI (KM12 colon): > 100 µM
TGI (UO-31 renal): > 100 µM
TGI (SW-620 colon): > 100 µM
TGI (HCT-116 colon): > 100 µM
TGI (RXF 393 renal): > 100 µM
TGI (CCRF-CEM leukemia): > 100 µM
TGI (OVCAR-3 ovarian): > 100 µM
TGI (UACC-62 melanoma): > 100 µM
TGI (NCI-H522 lung): > 100 µM
TGI (NCI-H460 lung): > 100 µM
TGI (SF-268 CNS): > 100 µM

CCC(C)NC(=S)N/N=C(\C)c1ccccn1 (stereo unspecified)
TGI (SF-295 CNS): > 33.2 µM
TGI (NCI-H23 lung): > 100 µM
TGI (HCC-2998 colon): > 100 µM
TGI (T-47D breast): 41.7 µM
TGI (LOX IMVI melanoma): > 100 µM
TGI (IGROV1 ovarian): > 30.7 µM
TGI (NCI-H226 lung): 6.83 µM
TGI (OVCAR-4 ovarian): > 100 µM
TGI (CAKI-1 renal): > 100 µM
TGI (BT-549 breast): > 100 µM
TGI (MALME-3M melanoma): > 28.3 µM
TGI (ACHN renal): 10.3 µM
TGI (HS 578T breast): > 100 µM
TGI (HCT-15 colon): > 100 µM
TGI (U251 CNS): > 100 µM
TGI (HOP-92 NSCLC): 0.668 µM
TGI (HT29 colon): > 100 µM
TGI (786-0 renal): > 100 µM
TGI (SK-MEL-28 melanoma): > 100 µM
TGI (A498 renal): > 26 µM
TGI (A549 NSCLC): > 33.5 µM
TGI (DU-145 prostate): > 46.8 µM
TGI (PC-3 prostate): > 100 µM
TGI (NCI/ADR-RES ovarian): 7.94 µM
TGI (MDA-MB-231 breast): > 100 µM
TGI (OVCAR-8 ovarian): > 25.8 µM
TGI (SNB-19 CNS): > 100 µM
TGI (MOLT-4 leukemia): 0.14 µM
TGI (SK-OV-3 ovarian): > 100 µM
TGI (SN12C renal): > 100 µM
TGI (COLO 205 colon): > 100 µM
TGI (MDA-MB-435): > 100 µM
TGI (HOP-62 NSCLC): > 25.8 µM
TGI (OVCAR-5 ovarian): > 100 µM
TGI (MDA-N): > 80 µM
TGI (SK-MEL-2 melanoma): > 100 µM
TGI (SF-539 CNS): 6.89 µM
TGI (TK-10 renal): > 100 µM
TGI (KM12 colon): > 100 µM
TGI (UO-31 renal): 16.8 µM
TGI (SW-620 colon): > 100 µM
TGI (HCT-116 colon): > 100 µM
TGI (RXF 393 renal): 26.9 µM
TGI (OVCAR-3 ovarian): 23.4 µM
TGI (UACC-62 melanoma): > 30 µM
TGI (NCI-H522 lung): 51.4 µM
TGI (NCI-H460 lung): > 100 µM
TGI (SF-268 CNS): > 100 µM
